Laboratory results: article PMC7303124, “RPamide neuropeptides NLP-22 and NLP-2 act through GnRH-like receptors to promote sleep and wakefulness in C. elegans” (Scientific Reports, 2020)
Where “and” joins values, the source holds several entries; their conditions need not be identical. Equal entries are not always repeated. Where a SMILES comes first, the peptide text is derived from it.

Key:
GNRR-3 = biological target: T1, GNRR-3 (Caenorhabditis elegans, UniProt Q23265); assay: Receptor activation assay (aequorin calcium mobilization), GNRR-3 co-expressed with promiscuous Gα16 in CHO cells; assay type: cell-based, C. elegans; conditions: for EC50: CHO cells stably expressing apo-aequorin and Gα16, transiently transfected receptor, aequorin luminescence relative to total calcium response, mean EC50, N = 5–7 replicates, 95% confidence interval given; for Activation of GNRR-3 (in words): CHO/apo-aequorin/Gα16 calcium mobilization assay, peptides initially tested at 10 µM
T1 sequence (Q23265 1-395): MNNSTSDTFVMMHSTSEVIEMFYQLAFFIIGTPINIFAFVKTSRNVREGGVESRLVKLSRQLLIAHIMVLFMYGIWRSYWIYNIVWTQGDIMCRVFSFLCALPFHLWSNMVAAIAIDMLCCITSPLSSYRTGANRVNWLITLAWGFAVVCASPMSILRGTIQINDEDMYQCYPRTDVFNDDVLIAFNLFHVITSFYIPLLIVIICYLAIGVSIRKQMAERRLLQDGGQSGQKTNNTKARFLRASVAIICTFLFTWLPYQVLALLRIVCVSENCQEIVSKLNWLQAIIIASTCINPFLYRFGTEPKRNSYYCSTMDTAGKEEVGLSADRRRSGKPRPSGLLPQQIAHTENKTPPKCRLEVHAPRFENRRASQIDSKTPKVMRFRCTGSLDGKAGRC
Source text: (§1) We tested a C. elegans peptide library for the ability to activate these seven receptors using an in vitro calcium mobilization assay. We cloned and transiently expressed each of the seven GNRRs in Chinese hamster ovary (CHO) cells stably expressing apo-aequorin and the human promiscuous Gα16 protein. These cells were challenged with a synthetic library of over 340 C. elegans peptides of the RFamide (FLP) and neuropeptide-like protein (NLP) families. […] Peptides encoded by nlp-2 and nlp-23 potently activated GNRR-3 with EC50 values in the nanomolar range. By contrast, NLP-22 activated GNRR-3 with far lower potency (EC50 value > 6 µM), which may be physiologically irrelevant. GNRR-6 was potently activated by NLP-22 and NLP-23 peptides. Peptides encoded by nlp-2 also activated GNRR-6, although with a higher EC50 value than NLP-22 and NLP-23. […] In short, we identified the neuropeptides encoded by nlp-2, nlp-22 and nlp-23 as bioactive ligands of the GnRH/AKH-like receptors GNRR-3 and GNRR-6 in vitro.
(§2) Figure 2 NLP-2, NLP-22, and NLP-23 peptides activate GNRR-3 and GNRR-6 in vitro. Dose-response curves for GNRR-3 (A) and GNRR-6 (B) co-expressed in CHO cells with a promiscuous Gα16 protein are shown as relative (%) to the highest value (100% activation) after normalization to the total calcium response. Each data point represents the mean ± SEM of N = 5–7 replicates for each peptide. (C) Amino acid (AA) sequences of RPamide neuropeptides activating GNRR-3 and GNRR-6 with their respective mean EC50 values and 95% Confidence intervals.
(§3) Peptides were custom-synthesized by GL Biochem Ltd. All peptides were initially tested at a concentration of 10 µM. Receptor activating peptides were purified using reverse-phase HPLC and verified using MALDI TOF mass spectrometry. Peptide concentrations were determined with a bicinchoninic acid (BCA) assay. For receptor activation assays, peptides were first lyophilized and then diluted to the desired concentrations.
(§4) Chinese hamster ovary (CHO) cells stably expressing apo-aequorin and the promiscuous Gα16 subunit were used for receptor deorphanization (ES-000-A24, Perkin-Elmer). To characterize downstream signaling, CHO cells stably expressing apo-aequorin but lacking the promiscuous Gα16 protein were used (ES-000-A12, Perkin-Elmer). Cells were cultured in Dulbecco’s Modified Eagle’s Medium Nutrient Mixture Ham F-12 (DMEM/F-12, Invitrogen) to which 1% penicillin/streptomycin, 2.5 µg/ml amphotericin B, and 10% fetal bovine serum (Sigma-Aldrich) were added. Growth medium was supplemented with 250 µg/ml zeocin or 5 µg/ml puromycin, which serves as a selection reagent for CHO cells with or without the promiscuous Gα16 subunit, respectively. Cells were grown as a monolayer at 37 °C, 5% CO2 and high humidity. For transfection, 3.75 ml Opti-MEM I (Invitrogen), 7.5 µg pcDNA3.1 construct and 18.75 µl Plus reagent (Invitrogen) were gently mixed in a polystyrene tube. After incubation for 5 minutes at room temperature, 45 µl Lipofectamine LTX (Invitrogen) was added and gently mixed. The transfection reagent was incubated for 30 min at room temperature. Growth medium was removed leaving 3 ml and the transfection reagents were added dropwise to the cells. Transfected cells were grown overnight and 20 ml growth medium was added the next day. Cells were grown one more day before the assay at 28 °C.
(§5) Two days after transfection, CHO cells were detached from the surface of the culture flask using phosphate buffered saline with 0.2% EDTA and collected in 10 ml colorless DMEM/F-12 (11039, Gibco). Cell viability was measured using a NucleoCounter NC-100 (Chemometic). Cells were pelleted for 4 min at 800 rpm at room temperature and resuspended to a concentration of 5 × 10^6 cells/ml in colorless DMEM/F12 with 0.1% bovine serum albumin (BSA). 5 µM coelenterazine H (Invitrogen) was added to the cell suspension. […]

GNRR-6 = biological target: T2, GNRR-6 (Caenorhabditis elegans, UniProt Q19399); assay: Receptor activation assay (aequorin calcium mobilization), GNRR-6 co-expressed with promiscuous Gα16 in CHO cells; assay type: cell-based, C. elegans; conditions: for EC50: CHO cells stably expressing apo-aequorin and Gα16, transiently transfected receptor, aequorin luminescence relative to total calcium response, mean EC50, N = 5–7 replicates, 95% confidence interval given; for Activation of GNRR-6 (in words): CHO/apo-aequorin/Gα16 calcium mobilization assay, peptides initially tested at 10 µM
T2 sequence (Q19399 1-400): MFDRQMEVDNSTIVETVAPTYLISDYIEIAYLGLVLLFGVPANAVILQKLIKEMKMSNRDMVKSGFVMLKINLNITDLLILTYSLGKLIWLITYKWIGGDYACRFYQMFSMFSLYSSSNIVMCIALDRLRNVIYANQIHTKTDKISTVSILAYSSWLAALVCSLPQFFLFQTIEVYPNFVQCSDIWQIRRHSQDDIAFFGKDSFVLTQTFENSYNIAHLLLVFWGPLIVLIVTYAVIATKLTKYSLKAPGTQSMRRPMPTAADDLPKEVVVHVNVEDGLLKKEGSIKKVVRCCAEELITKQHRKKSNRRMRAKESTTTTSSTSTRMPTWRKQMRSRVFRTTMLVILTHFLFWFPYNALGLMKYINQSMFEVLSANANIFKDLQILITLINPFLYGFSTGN
Source text: as §1, §2, §3, §4, §5

| Compound | EC50 (GNRR-3) | EC50 (GNRR-6) [nM] | Activation of GNRR-3 (in words) (GNRR-3) | Activation of GNRR-6 (in words) (GNRR-6) |
| --- | --- | --- | --- | --- |
| CSCC[C@H](NC(=O)[C@@H](N)CO)C(=O)N[C@@H](C)C(=O)N[C@@H](Cc1ccc(O)cc1)C(=O)NCC(=O)N[C@@H](CCCNC(=N)N)C(=O)N[C@@H](CCC(N)=O)C(=O)NCC(=O)N[C@@H](Cc1ccccc1)C(=O)N[C@@H](CCCNC(=N)N)C(=O)N1CCC[C@H]1C(N)=O [NLP-2-3] (H-SMAYGRQGFRP-NH2; N-terminus assumed) | 3300 nM | 169 | activated these receptors in a dose-dependent manner | activated these receptors in a dose-dependent manner |
| CSCC[C@H](NC(=O)[C@H](C)NC(=O)[C@H](CCSC)NC(=O)[C@@H](N)CO)C(=O)NCC(=O)N[C@@H](CCCNC(=N)N)C(=O)N[C@@H](CC(C)C)C(=O)NCC(=O)N[C@@H](CC(C)C)C(=O)N[C@@H](CCCNC(=N)N)C(=O)N1CCC[C@H]1C(N)=O [NLP-2-2] (H-SMAMGRLGLRP-NH2; N-terminus assumed) | 558 nM | 542 | activated these receptors in a dose-dependent manner | activated these receptors in a dose-dependent manner |
| LYISRQGFRPA [NLP-23-1, NLP-23 derived peptide … lacking the C-terminal glycine amidation target] |  |  | did not activate | did not activate |

Further compounds by falling EC50 (GNRR-6), results first:

| EC50 (GNRR-3) | EC50 (GNRR-6) [nM] | Compound | Activation of GNRR-3 (in words) (GNRR-3) | Activation of GNRR-6 (in words) (GNRR-6) |
| --- | --- | --- | --- | --- |
| 81000 nM | 135 | CC[C@H](C)[C@H](NC(=O)[C@@H](N)CO)C(=O)N[C@@H](C)C(=O)N[C@@H](CC(C)C)C(=O)NCC(=O)N[C@@H](CCCNC(=N)N)C(=O)N[C@@H](CO)C(=O)NCC(=O)N[C@@H](Cc1ccccc1)C(=O)N[C@@H](CCCNC(=N)N)C(=O)N1CCC[C@H]1C(N)=O [NLP-2-1] (H-SIALGRSGFRP-NH2; N-terminus assumed) | activated these receptors in a dose-dependent manner | activated these receptors in a dose-dependent manner |
| 158 nM | 6 | CC[C@H](C)[C@H](NC(=O)[C@H](C)NC(=O)[C@H](CCSC)NC(=O)[C@@H](N)CO)C(=O)NCC(=O)N[C@@H](CCCNC(=N)N)C(=O)N[C@@H](C)C(=O)NCC(=O)N[C@@H](CCSC)C(=O)N[C@@H](CCCNC(=N)N)C(=O)N1CCC[C@H]1C(N)=O [NLP-23-2] (H-SMAIGRAGMRP-NH2; N-terminus assumed) | activated these receptors in a dose-dependent manner | activated these receptors in a dose-dependent manner |
| > 6000 nM and 6700 nM | 4.1 | CC[C@H](C)[C@H](NC(=O)[C@H](C)NC(=O)[C@@H](NC(=O)[C@@H](N)CO)[C@@H](C)CC)C(=O)NCC(=O)N[C@@H](CCCNC(=N)N)C(=O)N[C@@H](C)C(=O)NCC(=O)N[C@@H](Cc1ccccc1)C(=O)N[C@@H](CCCNC(=N)N)C(=O)N1CCC[C@H]1C(N)=O [NLP-22] (H-SIAIGRAGFRP-NH2; N-terminus assumed) | activated these receptors in a dose-dependent manner | activated these receptors in a dose-dependent manner |
